system: HCV 1b_Huh-Luc/Neo-ET cell line persistently expressing a bicistronic genotype 1b replicon in Huh 7 cells; experiment: HCV replicon assay (luciferase readout); assay type: cell-based; conditions: Hepatitis C virus, Huh-7, 72 h, read-out: Inhibition of HCV genotype 1b
How it was run: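 Huh 7 cells carrying a genotype 1b luciferase/neo replicon treated in triplicate for 72 h, then luciferase activity measured. Signal expressed as % of control; EC50 from four-parameter logistic fit, determined several times.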

| SMILES | EC50 |
| --- | --- |
| COC(=O)N[C@@H](CCC(N)=O)C(=O)N1CCC[C@H]1c1ncc(-c2ccc(C#Cc3ccc4nc([C@@H]5CCCN5C(=O)[C@H](CCC(N)=O)NC(=O)OC)[nH]c4c3)cc2)[nH]1 [Compound 1051] | 1 to 9.9 nM |
| COC(=O)N[C@H](C(=O)N1CCC[C@H]1c1ncc(-c2ccc(C#Cc3ccc(-c4cnc([C@H](C)NC(=O)[C@@H](NC(=O)OC)[C@@H](C)OC)[nH]4)cc3)cc2)[nH]1)C(C)OC (stereo partly drawn) [Compound 289] | < 1 nM |
| COC(=O)N[C@H](C(=O)N1CCC[C@H]1c1nc2ccc3cc(C#Cc4ccc(-c5cnc([C@@H]6CCCN6C(=O)[C@@H](NC(=O)OC)C6CCOCC6)[nH]5)cc4)ccc3c2[nH]1)C(C)C [Compound 1092] | < 1 nM |
| COC(=O)N[C@H](C(=O)N1CCC[C@H]1c1ncc(-c2ccc(C#Cc3ccc(-c4cnc([C@@H]5CCCN5C(=O)[C@@H](c5ccccc5)N(C)C)[nH]4)cc3)cc2)[nH]1)C(C)C [Compound 955] | < 1 nM |
| COC(=O)N[C@H](C(=O)N1CCC[C@H]1c1nc2ccc3cc(C#Cc4ccc(-c5cnc([C@@H]6CCCN6C(=O)[C@@H](NC(=O)OC)C6CCOCC6)[nH]5)cc4F)ccc3c2[nH]1)C(C)C [Compound 1099] | < 1 nM |
| CN(C)[C@@H](C(=O)N1CCC[C@H]1c1ncc(-c2ccc(C#Cc3ccc(-c4cnc([C@@H]5CCCN5C(=O)[C@H](NS(C)(=O)=O)c5ccccc5)[nH]4)cc3)cc2)[nH]1)c1ccccc1 [Compound 228] | < 1 nM |
| COC(=O)N[C@H](C(=O)N1CCC[C@H]1c1nc(-c2cnc3cc(C#Cc4ccc(-c5cnc([C@@H]6CCCN6C(=O)[C@@H](NC(=O)OC)c6ccccc6)[nH]5)cc4)ccc3c2)c[nH]1)c1ccccc1 [Compound 1089] | 1 to 9.9 nM |
| COC(=O)N[C@@H](C(=O)N1CCC[C@H]1c1ncc(C#Cc2ccc(-c3ccc(-c4cnc([C@@H]5CCCN5C(=O)[C@@H](c5ccccc5)N5CCCC5)[nH]4)cc3)cc2)[nH]1)c1ccccc1 [Compound 759] | < 1 nM |
| CN1CCC[C@@H]1C(=O)N[C@@H](C(=O)N1CCC[C@H]1c1ncc(-c2ccc(C#Cc3ccc(-c4cnc([C@@H]5CCCN5C(=O)[C@H](NC(=O)C5CC5)c5ccccc5)[nH]4)cc3)cc2)[nH]1)c1ccccc1 [Compound 216] | < 1 nM |
| COC(=O)N[C@H](C(=O)N[C@@H](C)c1ncc(-c2ccc(C#Cc3ccc(-c4cnc([C@@H]5CCCN5C(=O)[C@H](C(C)C)N(C)C)[nH]4)cc3)cc2)[nH]1)C(C)C [Compound 963] | 1 to 9.9 nM |
| C[C@@H](c1ncc(-c2ccc(C#Cc3ccc(-c4cnc([C@@H]5CCCN5C(=O)[C@H](NC(=O)C5CC5)c5ccccc5)[nH]4)cc3)cc2)[nH]1)N(C)C(=O)[C@H](NC(=O)C1CC1)c1ccccc1 [Compound 278] | < 1 nM |
| COC(=O)N[C@@H](C(=O)N1CCC[C@H]1c1ncc(-c2ccc(C#Cc3ccc(-c4cnc([C@@H]5CCCN5C(=O)[C@@H](c5ccccc5)N(C)C)[nH]4)cc3)cc2)[nH]1)c1ccccc1 [Compound 174] | < 1 nM |
| CCN(CC)[C@@H](C(=O)N1CCC[C@H]1c1ncc(-c2ccc(C#Cc3ccc(-c4cnc([C@@H]5CCCN5C(=O)[C@H](NS(C)(=O)=O)c5ccccc5)[nH]4)cc3)cc2)[nH]1)c1ccccc1 [Compound 229] | < 1 nM |
| CC(C)(C)OC(=O)N[C@@H](C(=O)N1CCC[C@H]1C(=O)Nc1ccc(C#Cc2ccc(-c3cnc([C@@H]4CCCN4C(=O)[C@H](NC(=O)OC(C)(C)C)c4ccccc4)[nH]3)cc2)cc1)c1ccccc1 [Compound 163] | < 1 nM |
| COC(=O)N[C@H](C(=O)N1CCSC[C@H]1c1ncc(-c2ccc(C#Cc3ccc4nc([C@@H]5CCCN5C(=O)[C@@H](NC(=O)OC)C(C)C)[nH]c4c3)cc2)[nH]1)C(C)C [Compound 1062] | < 1 nM |
| COC(=O)N[C@@H](C(=O)N1CCC[C@H]1c1ncc(-c2ccc(C#Cc3ccc(C(=O)NC[C@@H]4CCCN4C(=O)[C@@H](c4ccccc4)N(C)C)cc3)cc2)[nH]1)c1ccccc1 [Compound 234] | < 1 nM |
| COC(=O)N[C@@H](C(=O)N1CCC[C@H]1c1ncc(C#Cc2ccc(C#Cc3cnc([C@@H]4CCCN4C(=O)[C@@H](c4ccccc4)N4CCCCC4)[nH]3)cc2)[nH]1)c1ccccc1 [Compound 312] | < 1 nM |
| O=C(N[C@@H](C(=O)N1CCC[C@H]1c1ncc(-c2ccc(C#Cc3ccc(-c4cnc([C@@H]5CCCN5C(=O)[C@H](NC(=O)N5CCOCC5)c5ccccc5)[nH]4)cc3)cc2)[nH]1)c1ccccc1)N1CCOCC1 [Compound 248] | < 1 nM |
| O=S(=O)(c1ccccc1)N1CCC[C@H]1c1ncc(-c2ccc(C#Cc3ccc4nc([C@@H]5CCCN5S(=O)(=O)c5ccccc5)[nH]c4c3)cc2)[nH]1 [Compound 1038] | > 1000 nM |
| CC1(O)CCN(C(=O)N[C@@H](C(=O)N2CCC[C@H]2c2ncc(C#Cc3ccc(-c4ccc(-c5cnc([C@@H]6CCCN6C(=O)[C@H](NC(=O)N6CCC(C)(O)CC6)c6ccccc6)[nH]5)cc4)cc3)[nH]2)c2ccccc2)CC1 [Compound 870] | < 1 nM |
| COC(=O)N[C@@H](C)C(=O)N1CCC[C@H]1c1ncc(-c2ccc(C#Cc3ccc4nc([C@@H]5CCCN5C(=O)[C@H](C)NC(=O)OC)[nH]c4c3)cc2)[nH]1 [Compound 1028] | < 1 nM |
| COC(=O)N[C@@H](C(=O)N1CCC[C@H]1c1ncc(-c2ccc(C#Cc3ccc(-c4cnc([C@@H]5CCCN5C(=O)[C@@H](c5ccccc5)N5CCOCC5)[nH]4)cc3)cc2)[nH]1)c1ccccc1 [Compound 185] | < 1 nM |
| COC(=O)N[C@H](C(=O)N1CCC[C@H]1c1ncc(-c2ccc(C#Cc3ccc4nc([C@@H]5CCCN5C(=O)[C@@H](NC(=O)OC)[C@@H](C)O)[nH]c4c3)cc2)[nH]1)[C@@H](C)O [Compound 863] | < 1 nM |
| CN(C)[C@@H](C(=O)N1CCC[C@H]1c1ncc(-c2ccc(C#Cc3ccc(-c4cnc([C@@H]5CCCN5C(=O)[C@@H](c5ccccc5)N(C)C)[nH]4)cc3)cc2)[nH]1)c1ccccc1 [Compound 160] | < 1 nM |
| CN1CCN(C(=O)N[C@@H](C(=O)N2CCC[C@H]2c2ncc(-c3ccc(C#Cc4ccc(-c5cnc([C@@H]6CCCN6C(=O)[C@H](NC(=O)N6CCN(C)CC6)c6ccccc6)[nH]5)cc4)cc3)[nH]2)c2ccccc2)CC1 [Compound 159] | < 1 nM |
| COC(=O)N[C@H](C(=O)N1CCC[C@H]1c1ncc(-c2ccc(C#Cc3ccc4c(c3)CCCc3nc([C@@H]5CCCN5C(=O)[C@@H](NC(=O)OC)C(C)C)[nH]c3-4)cc2)[nH]1)C(C)C [Compound 1096] | < 1 nM |
| COC(=O)N[C@H](C(=O)N1CCC[C@H]1c1ncc(-c2ccc(C#Cc3ccc4c(c3)CCc3nc([C@@H]5CCCN5C(=O)[C@@H](NC(=O)OC)C(C)C)[nH]c3-4)cc2)[nH]1)C(C)C [Compound 1094] | < 1 nM |
| COC(=O)N[C@@H](C(=O)N1CCC[C@H]1c1ncc(-c2ccc(C#Cc3ccc(-c4cnc([C@@H]5CCCN5C(=O)[C@H](NC(=O)N5CCN(C)CC5)c5ccccc5)[nH]4)cc3)cc2)[nH]1)c1ccccc1 [Compound 240] | < 1 nM |
| COC(=O)N[C@@H](C)C(=O)N1CCC[C@H]1c1ncc(-c2ccc(C#Cc3ccc(-c4cnc([C@@H]5CCCN5C(=O)[C@H](NC(=O)OC)c5ccccc5)[nH]4)cc3)cc2)[nH]1 [Compound 1004] | < 1 nM |
| CC(C)[C@@H](NC(=O)OC(C)(C)C)C(=O)N1CCC[C@H]1c1ncc(-c2ccc(C#Cc3ccc(-c4cnc([C@@H]5CCCN5C(=O)[C@H](NC(=O)OC(C)(C)C)C(C)C)[nH]4)cc3)cc2)[nH]1 [Compound 152] | 10 to 999 nM |

— patent US8865756B2, “Inhibitors of HCV NS5A” (Presidio Pharmaceuticals, Inc., priority 2008, dated 2014)
